16 molecules from ChEMBL document CHEMBL3045850, “Effects of Pyridalyl, a Novel Insecticidal Agent, on Cultured Sf9 Cells” (2005) can be followed below.

The test system of assay [1] is Spodoptera litura. Description: Insecticidal activity against Spodoptera litura assessed as mortality at 500 mg/L after 6 days. It counts as functional. The settings on record: 144 h.
The test system of assay [2] is Sf9. Description: Cytotoxicity against Spodoptera frugiperda (fall armyworm) Sf9 cells at 10 uM after 72 hr by trypan blue dye exclusion test. It counts as functional, cell-based.
In assay [3] the test system is Sf9. In words: Cytotoxicity against Spodoptera frugiperda (fall armyworm) Sf9 cells at 0.1 to 1 uM after 72 hr by trypan blue dye exclusion test. It counts as functional, cell-based.
In assay [4] the test system is Sf9. Description: Induction of cell growth in Spodoptera frugiperda (fall armyworm) Sf9 cells at 10 uM after 72 hr by trypan blue dye exclusion test. The format is functional, cell-based.
Assay [5] concerns Sf9. In words: Cytotoxicity against Spodoptera frugiperda (fall armyworm) Sf9 cells at 0.1 to 10 uM after 72 hr by trypan blue dye exclusion test. The format is functional, cell-based.
Assay [6] deals with Sf9. In words: Cytotoxicity against Spodoptera frugiperda (fall armyworm) Sf9 cells at 1 to 10 uM after 72 hr by trypan blue dye exclusion test. It counts as functional, cell-based.
Assay [7] concerns Spodoptera litura. In words: Inhibition of mitochondrial respiration in Spodoptera litura mitochondria assessed as oxygen consumption at 20 uM at 3:1 minute after addition of 0.2 mM of rotenone and 0.1 mM of succinate (reference value: 0.5%). The format is functional. The arrangement: scale not given: the % may be the effect or the level left.
Assay [8] deals with Spodoptera litura. Description: Inhibition of mitochondrial respiration in Spodoptera litura mitochondria assessed as oxygen consumption at 20 uM at 1:1 minute after addition of 0.1 mM of ADP (reference value: 12.2%). It counts as functional. The arrangement: scale not given: the % may be the effect or the level left.
In assay [9] the test system is Sf9. Description: Cytotoxicity against Spodoptera frugiperda (fall armyworm) Sf9 cells assessed as formation of granular structures at 1 to 10 uM after 72 hr by microscopic analysis. The format is functional, cell-based.
The subject of assay [10] is Sf9. In words: Cytotoxicity against Spodoptera frugiperda (fall armyworm) Sf9 cells at 0.01 to 10 uM after 72 hr by trypan blue dye exclusion test. It counts as functional, cell-based.
The test system of assay [11] is Spodoptera litura. In words: Inhibition of mitochondrial respiration in Spodoptera litura mitochondria assessed as oxygen consumption at 20 uM at 2:1 minute after addition of 0.1 mM of ADP (reference value: 54.4%). The format is functional. Details: scale not given: the % may be the effect or the level left.
Assay [12] relates to Sf9. Description: Cytotoxicity against Spodoptera frugiperda (fall armyworm) Sf9 cells at 5 uM after 72 hr by trypan blue dye exclusion test. It counts as functional, cell-based.

The term mortality denotes the share of the test organisms that died.

The structures appear in SMILES notation. The source made the active and inactive calls. The calls are words filed in the database; no cut-off is given here.

Regarding `CC(COc1cc(Cl)c(OCCCOc2ccc(Cl)cc2)c(Cl)c1)=C(Cl)Cl`, the mortality at 500 µg/mL in the assay with Spodoptera litura [1] amounted to 0%. Besides, the result in the assay with Sf9 [2] was inactive.
Take `O=c1[nH]cc(F)c(=O)[nH]1`: the result in the assay on Sf9 [3] was Active.
`FC(F)(F)c1ccc(OCCCOc2c(Cl)cc(OC/C(Cl)=C/Cl)cc2Cl)nc1`: in the assay with Spodoptera litura [1], the mortality at 500 µg/mL is 0%. Further, the result in the assay on Sf9 [2] was inactive.
`FC(F)(F)c1ccc(OCCCOc2ccc(OCC=C(Cl)Cl)cc2)nc1`: the mortality at 500 µg/mL with Spodoptera litura [1] is 0%. In addition, the result in the assay with Sf9 [2] was inactive.
For `O=[N+]([O-])c1ccc(O)c([N+](=O)[O-])c1`, the result in the assay with Sf9 [2] was Active.
As to `COP(=O)(NC(C)=O)SC` (stereo unspecified), the outcome in the assay on Sf9 [4] was Active.
For `CCOCn1c(-c2ccc(Cl)cc2)c(C#N)c(Br)c1C(F)(F)F`, the outcome in the assay on Sf9 [5] was Active.
For the molecule `CC1(C)C(C=C(Cl)Cl)C1C(=O)OC(C#N)c1cccc(Oc2ccccc2)c1` (stereo unspecified), the outcome in the assay with Sf9 [4] was Active.
Turning to `ClC(Cl)=C(Cl)COc1cc(Cl)c(OCCCOc2ccc(Cl)cc2)c(Cl)c1`, the mortality at 500 µg/mL with Spodoptera litura [1] is 0%. In addition, the outcome in the assay with Sf9 [2] was inactive.
On to `C=C(C)[C@H]1Cc2c(ccc3c2O[C@@H]2COc4cc(OC)c(OC)cc4[C@@H]2C3=O)O1`, for which the outcome with Sf9 [6] was Active.
In the case of `FC(F)(F)c1ccc(OCCCOc2c(Cl)cc(OCC=C(Cl)Cl)cc2Cl)nc1` [PYRIDALYL], the mortality at 500 µg/mL in the assay with Spodoptera litura [1] is 100%. Moreover, the figures for the Activity in the assay on Spodoptera litura [7], with Spodoptera litura [8] and in the assay with Spodoptera litura [11] were 0.5%, 12.2% and 53.3%, respectively. The outcome with Sf9 [9] and with Sf9 [10] was Active.
`ClC(Cl)=CCOc1cc(Cl)c(OCCCOc2ccc(Cl)cc2)c(Cl)c1`: the mortality at 500 µg/mL in the assay with Spodoptera litura [1] is 100%. Also, the result in the assay with Sf9 [2] was Active.
Consider `CC[C@H]1/C=C/C=C/C[C@@H](C)[C@H](O)[C@@](C)(O)C(=O)[C@@H](C)[C@H](O)[C@@H](C)C(=O)[C@@H](C)[C@H](O)[C@@H](C)/C=C/C(=O)O[C@@H]2[C@H](C)[C@H](CC1)O[C@]1(CC[C@H](C)[C@H](C[C@@H](C)O)O1)[C@H]2C`, for which, in the assay with Sf9 [6], the result was Active.
For the molecule `COc1ccc(C[C@H]2NC[C@H](O)[C@H]2OC(C)=O)cc1`, the result in the assay with Sf9 [2] was Active.
Consider `CNC(=O)ON=C(C)SC`, for which the result in the assay with Sf9 [4] was Active.
On to `C[C@@]1(CO)[C@H](O)CC[C@@]2(C)[C@H]1CC[C@H]1C[C@@H]3C[C@@]12CC[C@]3(O)CO`, for which the result with Sf9 [12] was inactive.
